Read-outs that look alike come from different tables or passages of the source.
Tested on: Influenza virus
Settings: mice, ninth day

In the case of NC(=O)c1ncn([C@@H]2O[C@H](CO)[C@@H](O)[C@H]2O)n1 [RIBAVIRIN], the “% PROTECTION (LUNG LESIONS) TEST” value (1.6 mg/kg (31 mcg/mouse) I.N., Wilcoxon * p < 0.01, ° p < 0.025) is reported as 15% and the “% PROTECTION (LUNG LESIONS) TEST” value (100 mg/kg (2000 mcg/mouse) P.OS, * p < 0.01 Wilcoxon) is reported as 27%.

Reference: patent US5374626A, “5'-alkylphosphonylnucleosides as antivirals” (priority 1989, dated 1994)
